Like-named read-outs stand apart in the source and are kept apart here.
Key:
S. mansoni schistosomula = assay: Motor activity of schistosomula in culture (frequency of body length changes); type: cell-based, Schistosoma mansoni; conditions: for concentration at which significant inhibition of motility was observed: range tested 10^−7 M–10^−4 M
Procedure: 3-day old in vitro transformed schistosomula were placed in individual wells of a 24-well plate (30–40 animals/well) in 300 µl of OPTI-MEM+10% dialyzed serum. Following an adaptation period of 15 min at room temperature, test substances were added at a final concentration of 100 µM or as indicated. Animals were monitored 5 min after drug addition by placing the 24-well plate on a compound microscope (Nikon, SMZ1500) equipped with a digital video camera (QICAM Fast 1394, mono 12 bit, Qimaging) and SimplePCI version 5.2 (Compix Inc.) for image acquisition. Images were obtained at a rate of ≈3 frames/s for a period of 1 minute and the data were analyzed with ImageJ software (version 1.41, NIH, USA). Cultured schistosomula display complex motor behaviours that are dominated by repeated changes in length, both shortening and elongation. To quantify this type of movement, we used the “Fit-Ellipse” command of ImageJ to draw best-fit ellipses of individual animals in each recorded frame. An estimate of body length was obtained by measuring the principal (“major”) axis of each ellipse, using calibrated units (µm), and the frequency of length changes during the observation period was calculated. Any change representing >10% of body length, whether an increase or decrease, was included in the calculation; changes ≤10% were disregarded. Between 12–15 animals were monitored per well and the experiment was repeated a minimum of 3 times. To monitor for possible drug induced toxicity, viability tests were performed routinely using the methylene blue dye exclusion assay described by Gold.
To explore this possibility we tested the effects of several SmGPR-3 agonists and antagonists on the motor activity of intact schistosomula in culture. […] We used a larval stage (schistosomula) instead of adult worms because the larvae are better suited for quantitative measurements of movement. […] To quantitate motor activity, we monitored individual schistosomula in the presence and absence of test substances, using a microscope equipped with a video camera and imaging software. Approximately 180 consecutive frames were recorded for each animal over 1 min of observation and the approximate length of the animal in each frame was measured in calibrated units (µm). […] To quantify the level of motor activity, we repeated experiments at different concentrations of each amine and then calculated the frequency of length changes, both decrease and increase for each individual animal during the 1 min of observation. Mean values were obtained from the average of 12–15 animals/experiment and each experiment was repeated a minimum of 3 times.
Figure 7 Effects of dopamine and related substances on schistosome motility. (A) In vitro transformed 3-day-old schistosomula were incubated with test drug, dopamine (DA) or epinine (EPN), each at (10^−4 M) or vehicle (CT, control). Animals were treated for 5 min at room temperature, after which they were examined with a compound microscope equipped with a digital video camera and SimplePCI (Compix Inc.) for image acquisition. Images were recorded for 1 minute (∼3 frames/second) and an estimate of body length in µm was obtained for each animal in every frame. Each tracing shown is of an individual animal and is representative of 12–15 larvae per experiment and 3–4 independent experiments per treatment.

SmGPR-3 [1] = molecular target: T1, SmGPR-3 (Schistosoma mansoni, UniProt C4Q8W8); assay: cell-based
T1 sequence (C4Q8W8 1-497): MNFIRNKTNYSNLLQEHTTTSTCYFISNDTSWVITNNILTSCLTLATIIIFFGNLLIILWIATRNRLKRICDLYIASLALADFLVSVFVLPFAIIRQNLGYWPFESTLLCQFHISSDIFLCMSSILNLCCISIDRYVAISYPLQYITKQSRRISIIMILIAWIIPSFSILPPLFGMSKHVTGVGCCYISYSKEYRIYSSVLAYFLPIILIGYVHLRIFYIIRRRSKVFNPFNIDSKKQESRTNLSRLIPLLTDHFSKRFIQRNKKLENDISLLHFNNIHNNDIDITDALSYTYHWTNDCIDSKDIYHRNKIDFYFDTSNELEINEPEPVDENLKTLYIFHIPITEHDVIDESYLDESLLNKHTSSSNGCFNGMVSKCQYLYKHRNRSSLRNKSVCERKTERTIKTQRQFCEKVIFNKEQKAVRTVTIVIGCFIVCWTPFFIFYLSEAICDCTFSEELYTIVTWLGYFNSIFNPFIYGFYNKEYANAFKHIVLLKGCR
Description: (§1) The SmGPR-3 coding sequence was sub-cloned between the NcoI/XbaI restriction sites of the yeast expression vector Cp4258 (kindly provided by Dr J. Broach, Princeton University, NJ, USA). The functional expression assay was adapted from the protocol of Wang and colleagues as described, [30]. The receptor was expressed in Saccharomyces cerevisiae strain YEX108 (MATα PFUS1-HIS3 PGPA1-Gαq(41)-GPA1-Gaq(5) can1 far1Δ 1442 his3 leu2 lys2 sst2Δ2 ste14::trp1::LYS2 ste18Δ6-3841 ste3Δ1156 tbt1-1 trp1 ura3; kindly provided by J. Broach, Princeton University, NJ, USA). This strain expresses the HIS3 reporter gene under the control of the FUS1 promoter and contains an integrated copy of a chimeric Gα gene in which the first […] and last five codons of native yeast Gα (GPA1) were replaced with those of human Gαq. […] YPD culture medium (1% yeast extract, 2% peptone and 2% dextrose) was used to culture YEX108 strain, according to standard conditions. The lithium acetate method was performed to transform yeast with either empty Cp4258 vector (mock) or Cp4258/SmGPR-3 expression plasmid, using 200 µl mid-log phase cells, 200 µg carrier single stranded DNA (Invitrogen) and 1 µg plasmid. Positive transformants were selected on synthetic complete (SC) 2% glucose solid medium lacking leucine (SC/leu^−). For agonist assays, single colonies of transformants were cultured overnight in SC/leu^− liquid medium at 250 rpm/30°C. The next day, cells were washed four times in SC 2% glucose liquid medium that lacked both leucine and histidine (SC/leu^−/his^−). Cells were finally resuspended in SC/leu^−/his^− medium supplemented with 50 mM 3-(N-morpholino) propanesulfonic acid (MOPS), pH 6.8 and 1.5 mM 3-Amino-1, 2, 4-Triazole (3-AT). The latter was used to reduce basal growth due to endogenous background signalling as it inhibits the gene product of HIS3 [29]. Aliquots containing approximately 3,000 cells were added to individual wells of a 96-well plate containing test agonist or vehicle plus additional medium for a total reaction volume of 100 µl. The plates were incubated at 30°C for 22–26 h, after which 10 µl of Alamar blue (Invitrogen) was added to each well. The plates were returned to the 30°C incubator until the Alamar blue color started to shift to pink (approximately 1–4 h) and fluorescence (560 nm excitation/590 nm emission) was measured at 30°C every hour up to three hours, using a plate fluorometer (FlexStation II, Molecular Devices, US). Antagonist assays were done in a similar way, except that each well contained 10^−4 M agonist (dopamine) and the antagonist at the specified concentration. Data analyses and dose-response curve fits were performed using Prism v5.0 (GraphPad software Inc.).
Functional expression assays were performed in yeast. […] The full-length SmGPR-3 cDNA was ligated to the Cp4258 vector and the recombinant plasmid was transformed into Saccharomyces cerevisae to test for receptor activity. We used a genetically modified S. cerevisae strain that is designed for GPCR activity assays. The yeast is auxotrophic for histidine and expresses a HIS3 reporter gene under the control of the FUS1 promoter. Activation of a recombinant GPCR in this system increases expression of the HIS3 reporter via the yeast's endogenous pheromone response, which in turn allows the cells to grow in selective histidine-deficient medium. Thus receptor activity can be quantified based on measurements of yeast growth in the selective medium, using a fluorometric Alamar Blue assay. Cells transformed with either empty vector (mock control) or SmGPR-3 were initially tested with all different biogenic amines, each at 2×10^−4 M (Fig. 3A).
Yeast cells transformed with empty plasmid were used as a negative control (mock).

SmGPR-3 [2] = molecular target: T1, SmGPR-3; assay: cell-based; conditions: for inhibition of SmGPR-3 activity: highest concentration tested, in the presence of 100 µM DA
Description: as §1
(§2) Next we examined the effects of classical (mammalian) dopaminergic and other BA antagonists on the activity of SmGPR-3. Drugs were tested initially at a single concentration of 100 µM (10 µM in the case of flupenthixol) in the presence of 100 µM DA (Fig. 4A). […] Those drugs that produced significant inhibition (>50%) in the initial screen were subsequently tested at different concentrations to obtain dose response curves (Fig. 4B–F). […] To test this possibility, we repeated the assay in medium supplemented with histidine (100 µM), which enables cell growth irrespective of receptor activation.
Figure 4 Antagonist effects on SmGPR-3 activity. (A) Yeast YEX108 auxotrophic his strain expressing SmGPR-3 was incubated with agonist (DA, 100 µM) and test antagonist or vehicle. Antagonists were tested at 100 µM except for flupenthixol, which was used at 10 µM.

[3] = tested on: Saccharomyces cerevisiae strain YEX108; assay: Drug-induced toxicity control: yeast growth in histidine-supplemented medium; type: cell-based; conditions: medium supplemented with histidine (100 µM); drug-treated cells
Procedure: as §2
Figure 4 Antagonist effects on SmGPR-3 activity. (A) Yeast YEX108 auxotrophic his strain expressing SmGPR-3 was incubated with agonist (DA, 100 µM) and test antagonist or vehicle. Antagonists were tested at 100 µM except for flupenthixol, which was used at 10 µM. The data were normalized relative to the control sample that contained 100 µM DA but no antagonist. To test for drug induced toxicity, assays were repeated in the presence of 100 µM test antagonist in histidine-supplemented (his+) medium, which enables the cell to grow irrespective of receptor activation (His +ve control; see text for details). Abbreviations are as follows: SPIP, spiperone; PROP, propanolol; CLZP, clozapine; BUSP, buspirone; MINS, mianserin; CPRH, cyproheptadine; FLPX, flupenthixol; PRMZ, promethazine; HLRD, haloperidol. […] The error bars are the means ± SEM for 3–4 experiments and at least 2 clones (in triplicates).

SmGPR-2 = tested on: SmGPR-2; design: method as in PMID 20430030; conditions: cited from earlier work
[4] = 500 µM, compared to untreated larvae
[5] = drug 100 µM in the presence of 100 µM DA
[6] = 50 µM, compared to untreated larvae
[7] = 100 µM, 3-day-old schistosomula, 5 min after drug addition
[8] = each amine at 2×10^−4 M, relative to no drug control

SMILES: CNC[C@H](O)c1ccc(O)c(O)c1 [adrenaline]
- effect on motor activity of schistosomula (S. mansoni schistosomula; [4]): decrease in motility
- SmGPR-3 activation by biogenic amine (SmGPR-3 [1]): stimulated SmGPR-3 activity but not to the same extent as dopamine or epinine

SMILES: CN1CCN(C2=Nc3cc(Cl)ccc3Nc3ccccc32)CC1 [clozapine]
- effect on SmGPR-3 activity (SmGPR-3 [2]; [5]): modest or no significant inhibition

SMILES: CN1CCC(=C2c3ccccc3C=Cc3ccccc32)CC1 [cyproheptadine]
- inhibition of SmGPR-3 activity (SmGPR-3 [2]): ≈ 70%

SMILES: NCCc1ccc(O)c(O)c1 [dopamine]
- effect on motor activity of schistosomula (S. mansoni schistosomula; [6]): decrease in motility
- effect on motor activity of schistosomula (S. mansoni schistosomula; [7]): decreased both the amplitude and frequency of contractions
- concentration at which significant inhibition of motility was observed (S. mansoni schistosomula): ≥ 10 µM
- EC50 (SmGPR-3 [1]): 31 µM
- SmGPR-3 activation by biogenic amine (SmGPR-3 [1]; [8]): selectively activated

SMILES: CNCCc1ccc(O)c(O)c1 [epinine]
- effect on motor activity of schistosomula (S. mansoni schistosomula; [6]): decrease in motility
- effect on motor activity of schistosomula (S. mansoni schistosomula; [7]): virtual paralysis
- concentration at which significant inhibition of motility was observed (S. mansoni schistosomula): ≥ 10 µM
- EC50 (SmGPR-3 [1]): 28.5 µM
- SmGPR-3 activation by biogenic amine (SmGPR-3 [1]; [8]): selectively activated

SMILES: OCCN1CCN(CCC=C2c3ccccc3Sc3ccc(C(F)(F)F)cc32)CC1 [flupenthixol]
- IC50 (SmGPR-3 [2]): 3.9 µM
- effect on motor activity of schistosomula (S. mansoni schistosomula; [6]): significant decrease in motor activity
- yeast growth in the presence of histidine (toxicity control) [3]: normal or nearly normal growth
- inhibition of SmGPR-2 (SmGPR-2): most potent inhibitors of SmGPR-2

SMILES: O=C(CCCN1CCC(O)(c2ccc(Cl)cc2)CC1)c1ccc(F)cc1 [haloperidol]
- effect on motor activity of schistosomula (S. mansoni schistosomula; [4]): no significant motor effects
- yeast growth in the presence of histidine (toxicity control) [3]: normal or nearly normal growth

SMILES: CNCC(O)c1ccc(O)c(OC)c1 (stereo not shown) [metanephrine]
- increase in the frequency of body wall movements (S. mansoni schistosomula; 500 µM): ≈ 3 fold
- effect on motor activity of schistosomula (S. mansoni schistosomula; [4]): marked hyperactivation
- SmGPR-3 activation by biogenic amine (SmGPR-3 [1]; [8]): stimulated SmGPR-3 activity but not to the same extent as dopamine or epinine

SMILES: CN1CCN2c3ccccc3Cc3ccccc3C2C1 (stereo not shown) [mianserin]
- inhibition of SmGPR-3 activity (SmGPR-3 [2]): ≈ 70%

SMILES: NC[C@H](O)c1ccc(O)c(O)c1 [noradrenaline]
- SmGPR-3 activation by biogenic amine (SmGPR-3 [1]; [8]): stimulated SmGPR-3 activity but not to the same extent as dopamine or epinine

SMILES: CC(CN1c2ccccc2Sc2ccccc21)N(C)C (stereo not shown) [promethazine]
- IC50 (SmGPR-3 [2]): 28 µM
- effect on motor activity of schistosomula (S. mansoni schistosomula; [6]): significant decrease in motor activity
- yeast growth in the presence of histidine (toxicity control) [3]: normal or nearly normal growth
- inhibition of SmGPR-2 (SmGPR-2): most potent inhibitors of SmGPR-2

SMILES: CC(C)NCC(O)COc1cccc2ccccc12 (stereo not shown) [propranolol]
- effect on SmGPR-3 activity (SmGPR-3 [2]; [5]): no effect

SMILES: O=C(CCCN1CCC2(CC1)C(=O)NCN2c1ccccc1)c1ccc(F)cc1 [spiperone]
- enhancement of SmGPR-3 activity (SmGPR-3 [2]; [5]): ~2 fold
